The values that follow come from patent US9364564B2, “Pre-mixed, ready-to-use pharmaceutical compositions” (EKR Therapeutics, Inc., priority 2006, dated 2016).

A short description of data set [1]: Stability of concentrated ampul product after dilution with intravenous infusion fluids. The data set is classed as physicochemical. To be noted: diluted to 0.1 mg/ml in IV bag, 24 hours, final pH above 4.5. On the procedure: Stability results for the concentrated ampul product diluted to 0.1 mg/ml with various commonly used intravenous infusion fluids in an IV bag are shown in FIG. 1. pH after mixing was measured and is reported on the X-axis. Product stability was measured by monitoring the % drug remaining after duration of 24 hours by RP-HPLC and is shown on the Y-axis.

Data set [2] in a line: Effect of plastic film composition (IV bag type) on stability at 40° C. The data set is classed as physicochemical. To be noted: bags containing PVC (VIAFLEX, INTRAVIA), 0.2 mg/mL non-sorbitol dextrose formulation. The procedure:
The effect of plastic film composition on the stability of ready to use premixed compositions comprising 0.2 mg/mL nicardipine HCl, 0.2 mM citrate, 5% dextrose, pH 4.0-4.2 for “incompatible” bags and “compatible” bags is shown in FIGS. 5A and 5B respectively. “Incompatible” bags contain polar polymers, such as polyvinyl chloride (PVC) and ethylene vinyl acetate (EVA). […] Stability evaluations were done for the 0.2 mg/mL non-sorbitol dextrose formulation in various commercially available IV infusion bag systems. […]®, and VISIV® bags were rinsed in water and covered with aluminum foil over pouches. The bags were filled with the above formulation and autoclaved at 105° C. for 21 minutes. […]®71 and GALAXY® bags were aseptically filled with the above formulation. Stability assessments were done by measuring the % drug remaining and total impurity formation (data not shown) as a function of time using RP-HPLC for samples incubated for up to 24 weeks at 40° C. The % drug remaining was calculated relative to the concentration measured post-mixing in tank.

The conditions of data set [3]: weak base; cited from earlier work.
For data set [4] the following is noted: cited from earlier work.

Where a name gives a salt, the structure may show the parent alone.

For the compound `COC(=O)C1=C(C)NC(C)=C(C(=O)OCCN(C)Cc2ccccc2)C1c1cccc([N+](=O)[O-])c1` (racemic) [nicardipine HCl, (±)-2-(benzyl-methylamino) ethyl methyl 1,4-dihydro-2,6-dimethyl-4-(m-nitrophenyl)-3,5-pyridinedicarboxylate monohydrochloride], in data set [1], the “drug loss post dilution” value is “very pronounced drug loss”. Also, the “loss in product potency upon storage” value in data set [2] is reported as “Significant loss in product potency”. In addition, the pKa in data set [3] is roughly 7.2.
Consider `COC(=O)C1=C(C)NC(C)=C(C(=O)OCCN(C)Cc2ccccc2)C1c1cccc([N+](=O)[O-])c1` (stereo not shown) [Nicardipine, nicardipine], for which the solubility in water entry in data set [4] is “only slightly soluble”.
